Broadly, the IC50 is the concentration that inhibits the measured activity by half. A high value points to lower potency.

Each structure is given as a SMILES string.

The experiment concerns the target T1, 3-oxo-5-alpha-steroid 4-dehydrogenase 1 (Rattus norvegicus, UniProt P24008).
T1 sequence (P24008 whole entry): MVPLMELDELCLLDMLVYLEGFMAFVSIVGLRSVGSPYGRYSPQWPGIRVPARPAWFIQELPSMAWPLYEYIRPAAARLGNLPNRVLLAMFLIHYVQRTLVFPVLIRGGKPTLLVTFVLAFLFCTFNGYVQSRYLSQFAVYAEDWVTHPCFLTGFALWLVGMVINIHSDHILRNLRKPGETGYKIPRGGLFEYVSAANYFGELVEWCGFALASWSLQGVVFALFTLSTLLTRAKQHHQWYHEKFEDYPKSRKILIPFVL
Kind of experiment: Compound was tested for its inhibitory potency against rat Steroid 5-alpha-reductase type 1 expressed in transformed yeast Saccharomyces cerevisiae.

For the compound `CCN(CCCCNC(=O)[C@H]1CCC2C3CCC4NC(=O)C=C[C@]4(C)C3CC[C@@]21C)c1ccc2c(=O)[nH][nH]c(=O)c2c1` (some centres not stated), inhibition was half-maximal at 0.5 µM (IC50).

On to `CC(C)(C)NC(=O)[C@H]1CC[C@H]2[C@@H]3CC[C@H]4NC(=O)C=C[C@]4(C)[C@H]3CC[C@]12C` [FINASTERIDE], for which the concentration for half-maximal inhibition (IC50) was determined as 40 µM.
